# Source: publication PMC7761903, “Aldehyde Dehydrogenases and Prostate Cancer: Shedding Light on Isoform Distribution to Reveal Druggable Target” (Biomedicines, 2020)
# “Also recorded” adds a separate entry of the source.
# Columns and labels:
# Type in all cases: cell-based, human
# [1] = tested on: PNT2-C2 normal prostate epithelial cell line; assay: Alamar Blue cell viability, PNT2-C2; settings: 72 h exposure
# From the text: (§1) Five different prostate cell lines, including normal cell line PNT2-C2 (Merck), benign prostatic hyperplasia cell line BPH1 (gift from Simon W. Hayward, Evanston, IL, USA), and cancer cell lines including PC-3 (derived from prostate cancer bone metastasis) (ATCC), LNCaP (derived from prostate cancer lymph node metastasis) (ATCC), and P4E6 (derived from localized prostate cancer) (derived in York and available from European Collection of Authenticated Cell Cultures ECACC), as well as two primary malignant cell lines, H796/19 and H798/19 (both Gleason 7 grade cancers) (obtained in York with ethical permission, REC ref 07/H1304/121) were used in the study. Culturing of commercially available cell lines and processing and culturing of primary cells were carried out as previously described. Primary cells were typically used at a passage <5 since they have finite growth and the intention is to maintain them as close to the original tumor as possible.
# (§2) AlamarBlue quantitatively measures cell viability since actively metabolizing cells can reduce its active ingredient resazurin to a fluorescent molecule (resorufin) which can be subsequently analyzed on a plate reader. Cells were plated in 96 well plates at a density of 5000 cells/well and left to adhere overnight in 200 μL media. The following day cells were treated with 9 different concentrations of the test drugs in triplicate, ranging from 10^−5 M to 10^−13 M. After 72 h exposure 20 μL of AlamarBlue reagent (diluted 1:10 in the corresponding media for each cell line) was added to each well and incubated at 37 °C for 2 h. Fluorescence intensity was determined using a microplate reader (Polarstar Optima, BMG Labtech) at excitation/emission values 73 of 544/590 nm. EC50 values were calculated using the software GraphPad Prism Version 6 (San Diego, CA, USA).
# P4E6 cell line = assay: Alamar Blue cell viability, P4E6; settings: for EC50: 72 h exposure, Alamar Blue
# From the text: as §1, §2
# [2] = tested on: BPH1 benign prostatic hyperplasia cell line; assay: Alamar Blue cell viability, BPH1
# From the text: as §1, §2
# PC3 cell line [3] = assay: Alamar Blue cell viability, PC3; settings: for EC50: 72 h exposure, Alamar Blue
# From the text: as §1, §2
# LNCaP cell line = assay: Alamar Blue cell viability, LNCaP; settings: 72 h exposure
# From the text: as §1, §2
# PC3 cell line [4] = assay: Colony-forming assay, PC3; settings: 72 h exposure at EC50, EC50×2, EC50×5
# Method: PNT2-C2, BPH1 and PC3 cell lines were plated in 12-well plates with a density of 4 × 10^4 cells/well and left to adhere overnight in 1.00 mL media. The following day cells were treated with 3 different concentrations of the test drugs, based on the EC50 values in cell viability (EC50, EC50×2, EC50×5). After 72 h of exposure, cells were counted and plated into 12 well plates in triplicate with a density of 100 cells/well. At day 8, cells were stained with crystal violet (1% (w/v) crystal violet, 10% (v/v) ethanol in PBS). Colonies consisting of >32 cells were counted (representative of 5 population doublings).
# [5] = tested on: ALDH1A1 gene expression in primary prostate epithelial cell cultures; assay: qPCR ALDH1A1 gene expression after atRA treatment; settings: atRA 100 nM, 72 hours; 1xBPH, 1xBPH-PIN, 2x PCa primary cultures; no statistical test
# Method: (§3) RNA extraction was carried out using the RNeasy Mini Kit (Qiagen, Hilden, Germany). The concentration and quality of the eluted RNA were determined using a NanodropTM2000 (Thermo Fisher Scientific, Waltham, MA, USA) spectrophotometer and measuring the 260/280 ratio. Total RNA of 50–2000 ng was reverse transcribed into single-stranded cDNA using the High Capacity cDNA Reverse Transcription Kit (Thermo Fisher Scientific, Waltham, MA, USA). Once the reaction finished, samples were purified using the QIAquick PCR Purification Kit (Qiagen). The concentration and quality of the cDNA was measured by using the NanodropTM2000 spectrophotometer. qPCR was carried out in 25 μL total PCR reaction using the TaqMan Universal PCR Master Mix (Applied Biosystems, Thermo Fisher Scientific, Waltham, MA, USA). The PCR reaction consisted of 12.5 μL of 2× master mix, 1.25 μL of 20× TaqMan Gene Expression Assay Mix (Supplementary Table S1), and 11.25 μL cDNA diluted in dH2O. A 96-well MicroAmp Optical plate (Applied Biosystems) was used and all reactions were run in triplicates. Primers used were obtained from TaqMan Gene Expression Assays (Thermo Fisher Scientific, Waltham, MA, USA). […] The gene expression level relative to internal control RPLP0 was calculated using the formula 2^−∆CT and the fold change in gene expression was worked out using the 2^−∆∆CT method. […]
# [6] = tested on: ALDH1A3 gene expression in primary prostate epithelial cell cultures; assay: qPCR ALDH1A3 gene expression after atRA treatment; settings: atRA 100 nM, 72 hours; 1xBPH, 1xBPH-PIN, 2x PCa primary cultures; no statistical test
# Method: as §3
Structure (SMILES),EC50 [1],EC50 (P4E6 cell line),EC50 ([2]; 72 h exposure),EC50 (PC3 cell line [3]),EC50 (LNCaP cell line),other results
c1ccc(-c2ccc3nc(-c4ccccc4)cn3c2)cc1 [Compound 3a],423 nM,60.7 nM,113 nM,239 nM,315 nM,–
"Fc1ccc(-c2ccc3nc(-c4ccccc4)cn3c2)cc1 [Compound 3b, 6-(4-fluorophenyl)-2-phenylimidazo [1,2-a]pyridine]",–,–,–,–,–,"EC50 ([1]; Homo sapiens, Epithelial cell): 217 nM; colony-forming efficiency PC3 (PC3 cell line [4]): inhibitory efficacy against PC3 colony-forming efficiency; EC50 (P4E6 cell line; Homo sapiens): 4.04 nM; antiproliferative activity against P4E6 (P4E6 cell line; result in words): antiproliferative activity in the nanomolar range; also recorded: nanomolar efficacy; EC50 ([2]; Homo sapiens, BPH-1, 72 h exposure): 41.5 nM; EC50 (PC3 cell line [3]; Homo sapiens, PC-3): 70.9 nM; antiproliferative activity against PC3 (PC3 cell line [3]; result in words): antiproliferative activity in the nanomolar range; also recorded: nanomolar efficacy; EC50 (LNCaP cell line; Homo sapiens, LNCaP): 240 nM"
Clc1ccc(-c2ccc3nc(-c4ccccc4)cn3c2)cc1 [Compound 3c],325 nM,33.4 nM,416 nM,322 nM,323 nM,–
N#Cc1cccc(-c2ccc3nc(-c4ccccc4)cn3c2)c1 [Compound 3d],1720 nM,440 nM,351 nM,–,7180 nM,selectivity of PC3 colony forming inhibition versus PNT2-C2 or BPH-1 (PC3 cell line [4]): selectively inhibited PC3 colony forming more strongly than PNT2-C2 or BPH-1; also recorded: selective inhibition of PC3 colony formation
CC1=C(/C=C/C(C)=C/C=C/C(C)=C/C(=O)O)C(C)(C)CCC1 [atRA],–,–,–,–,–,gene expression for ALDH1A1 [5]: no apparent effect; gene expression for ALDH1A3 [6]: increase
